test system: HCV 1b genotype; assay: HCV replicon assay (HCV-neo replicon cells, wild-type); assay type: cell-based, Hepatitis C virus; conditions: HCV 1b genotype replicon; class symbol; read-out: EC50 Range against HCV 1b
Procedure, shortened: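 HCV-neo replicon cells (wild-type) and replicon cells carrying NS5A resistance substitutions were treated with compounds; assay per O'Boyle et al. 2005, with luciferase-reporter read-out variants also used.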

| SMILES | EC50 [nM] |
| --- | --- |
| CC(O)(C(=O)N1C(C(=O)Nc2ccc(-c3cnc(-c4ccc(NC(=O)C5CC6CC6N5C(=O)C(C)(O)c5ccccc5)cc4)o3)cc2)CC2CC21)c1ccccc1 [CB-10, (1S,3S,5S,1′S,3′S,5′S)-N,N′-(1,3-oxazole-2,5-diyldi-4,1-phenylene)bis(2-((2R)-2-hydroxy-2-phenylpropanoyl)-2-azabicyclo[3.1.0]hexane-3-carboxamide)] | < 4.57 |
| CC(C)(C)OC(=O)N1CCCC1C(=O)N1CCCC1C(=O)Nc1ccc(-c2cnc(-c3ccc(NC(=O)C4CCCN4C(=O)C4CCCN4C(=O)OC(C)(C)C)cc3)o2)cc1 [Example D-28, di-tert-butyl (2R,2′R)-2,2′-(1,3-oxazole-2,5-diylbis(4,1-phenylenecarbamoyl(2S)-2,1-pyrrolidinediylcarbonyl))di(1-pyrrolidinecarboxylate)] | 1000 to 10000 |

same assay, conditions: HCV 1b genotype replicon; class symbols; read-out: EC50 Range against HCV 1b

| SMILES | EC50 [nM] |
| --- | --- |
| CN(C)C(Cn1cncn1)C(=O)N1CCC[C@H]1C(=O)Nc1ccc(-c2cnc(-c3ccc(NC(=O)[C@@H]4CCCN4C(=O)C(Cn4cncn4)N(C)C)cc3)o2)cc1 (stereo partly drawn) [JR-12, (2S)-N,N′-(4,4′-(oxazole-2,5-diyl)bis(4,1-phenylene))bis(1-(2-(dimethylamino)-3-(1H-1,2,4-triazol-1-yl)propanoyl)pyrrolidine-2-carboxamide)] | 100 to 999 |

same assay, conditions: Hepatitis C virus, HCV 1b genotype replicon; class symbol; read-out: EC50 Range against HCV 1b

| SMILES | EC50 [nM] |
| --- | --- |
| Cn1nc(-c2ccc(NC(=O)[C@@H]3CCCN3C(=O)C3CC3)cc2)cc1-c1ccc(NC(=O)[C@@H]2CCCN2C(=O)C2CC2)cc1 [FY-4, (2S,2′S)-N,N′-((1-methyl-1H-pyrazole-3,5-diyl)di-4,1-phenylene)bis(1-(cyclopropylcarbonyl)-2-pyrrolidinecarboxamide)] | 1000 to 10000 |
| NC(=O)[C@@H]1C[C@@H]2C[C@@H]2N1C(=O)C1c2ccccc2C=CN1c1ccc(-c2ncc(-c3ccc(NC(=O)[C@@H]4C[C@@H]5C[C@@H]5N4C(=O)c4nccc5ccccc45)cc3)o2)cc1 (stereo partly drawn) [CB-2, (1S,3S,5S,1′S,3′S,5′S)-N,N′-(1,3-oxazole-2,5-diyldi-4,1-phenylene)bis(2-(1-isoquinolinylcarbonyl)-2-azabicyclo[3.1.0]hexane-3-carboxamide)] | 100 to 999 |
| COc1cccc2c(C(=O)N3CCC[C@H]3C(=O)Nc3ccc(-c4ccc(-c5ccc(NC(=O)[C@@H]6CCCN6C(=O)[C@H](NC(C)=O)c6ccccc6)cc5)o4)cc3)nc(Cl)cc12 [JG-67, (2S)-1-((2R)-2-acetamido-2-phenylacetyl)-N-(4-(5-(4-((((2S)-1-((3-chloro-5-methoxy-1-isoquinolinyl)carbonyl)-2-pyrrolidinyl)carbonyl)amino)phenyl)-2-furyl)phenyl)-2-pyrrolidinecarboxamide] | 4.57 to 99 |
| CC(=O)N1CCC[C@H]1C(=O)Nc1ccc(-c2nc(-c3ccc(NC(=O)[C@@H]4CCCN4C(=O)Cc4ccccc4)cc3)cs2)cc1 [Example D-45, (2S)-1-acetyl-N-(4-(4-(4-((((2S)-1-(phenylacetyl)-2-pyrrolidinyl)carbonyl)amino)phenyl)-1,3-thiazol-2-yl)phenyl)-2-pyrrolidinecarboxamide] | 100 to 999 |
| CN(C)[C@@H](C(=O)N1CCCN1C(=O)Nc1ccc(-c2cnc(-c3ccc(NC(=O)N4CCCN4C(=O)[C@@H](c4ccccc4)N(C)C)cc3)o2)cc1)c1ccccc1 [FY-9, N,N′-(1,3-oxazole-2,5-diyldi-4,1-phenylene)bis(2-((2R)-2-(dimethylamino)-2-phenylacetyl)-1-pyrazolidinecarboxamide)] | 4.57 to 99 |
| O=C(Nc1ccc(-c2cnc(-c3ccc(NC(=O)[C@@H]4CCCN4C(=O)c4cc5ccccc5o4)cc3)o2)cc1)[C@@H]1CCCN1C(=O)c1cc2ccccc2o1 [JG-28, (2S,2′S)-N,N′-(1,3-oxazole-2,5-diyldi-4,1-phenylene)bis(1-(1-benzofuran-2-ylcarbonyl)-2-pyrrolidinecarboxamide)] | 100 to 999 |
| CN1CCN(C(C(=O)N2CCC[C@H]2C(=O)Nc2ccc(-c3cnc(-c4ccc(NC(=O)[C@@H]5CCCN5C(=O)C(c5ccccc5)N5CCN(C)CC5)cc4)o3)cc2)c2ccccc2)CC1 (stereo partly drawn) [Example D-8, (2S,2′S)-N,N′-(1,3-oxazole-2,5-diyldi-4,1-phenylene)bis(1-((4-methyl-1-piperazinyl)(phenyl)acetyl)-2-pyrrolidinecarboxamide)] | 4.57 to 99 |
| CC(=O)N1CCC[C@H]1C(=O)Nc1ccc(-c2cnc(-c3ccc(NC(=O)[C@@H]4C[C@@H](OC(C)(C)C)CN4C(=O)OCc4ccccc4)cc3)o2)cc1 [MS-2, benzyl (2S,4R)-2-((4-(5-(4-((((2S)-1-acetyl-2-pyrrolidinyl)carbonyl)amino)phenyl)-1,3-oxazol-2-yl)phenyl)carbamoyl)-4-tert-butoxy-1-pyrrolidinecarboxylate] | 100 to 999 |
| O=C(Nc1ccc(-c2cc(-c3ccc(NC(=O)[C@@H]4CCCN4C(=O)OCc4ccccc4)cc3)[nH]n2)cc1)[C@@H]1CCCN1C(=O)OCc1ccccc1 [OL-26, (2S,2′S)-2,2′-[1H-pyrazole-3,5-diylbis(4,1-phenyleneiminocarbonyl)]bis-1-pyrrolidinecarboxylic acid, bis(phenylmethyl) ester] | 4.57 to 99 |
| O=C(Nc1ccc(-c2cc(-c3ccc(NC(=O)[C@@H]4C=CCN4C(=O)C4CC4)cc3)[nH]n2)cc1)[C@@H]1C=CCN1C(=O)C1CC1 [OL-37, (2S,2′S)-N,N′-(1H-pyrazole-3,5-diyldi-4,1-phenylene)bis(1-(cyclopropylcarbonyl)-2,5-dihydro-1H-pyrrole-2-carboxamide)] | 1000 to 10000 |
| C[C@H](NC(=O)[C@H](O)c1ccccc1)C(=O)Nc1ccc(-c2cnc(-c3ccc(NC(=O)[C@H](C)NC(=O)[C@H](O)c4ccccc4)cc3)o2)cc1 [OL-55, (2S,2′S)-N,N′-(1,3-oxazole-2,5-diyldi-4,1-phenylene)bis(2-(((2R)-2-hydroxy-2-phenylacetyl)amino)propanamide)] | < 4.57 |
| CCOC(=O)Cc1nc(-c2ccc(NC(=O)[C@@H]3CCCN3C(=O)OCc3ccccc3)cc2)c(-c2ccc(NC(=O)[C@@H]3CCCN3C(=O)OCc3ccccc3)cc2)o1 [OL-2, 4,5-bis[4-[[[(2S)-1-[(phenylmethoxy)carbonyl]-2-pyrrolidinyl]carbonyl]amino]phenyl]-2-oxazoleacetic acid, ethyl ester] | 1000 to 10000 |
| O=C(Nc1ccc(-c2cnc(-c3ccc(NC(=O)[C@@H]4CCCN4C(=O)[C@H](O)c4ccccc4)cc3)o2)cc1)[C@@H]1CCCN1C(=O)[C@H](O)c1ccccc1 [JG-23, (2S,2′S)-N,N′-(1,3-oxazole-2,5-diyldi-4,1-phenylene)bis(1-((2R)-2-hydroxy-2-phenylacetyl)-2-pyrrolidinecarboxamide)] | < 4.57 |
| C[C@H](NC(=O)[C@@H](O)c1ccccc1)C(=O)Nc1ccc(-c2cnc(-c3ccc(NC(=O)[C@H](C)NC(=O)[C@@H](O)c4ccccc4)cc3)o2)cc1 [OL-54, (2S,2′S)-N,N′-(1,3-oxazole-2,5-diyldi-4,1-phenylene)bis(2-(((2S)-2-hydroxy-2-phenylacetyl)amino)propanamide)] | 4.57 to 99 |
| CO[C@H](C(=O)N1CCC[C@H]1C(=O)Nc1ccc(-c2nc[nH]c2-c2ccc(NC(=O)[C@@H]3CCCN3C(=O)[C@@H](OC)c3ccccc3)cc2)cc1)c1ccccc1 [JG-45, (2S,2′S)-N,N′-(1H-imidazole-4,5-diyldi-4,1-phenylene)bis(1-((2S)-2-methoxy-2-phenylacetyl)-2-pyrrolidinecarboxamide)] | 4.57 to 99 |
| CC(=O)N1CCC[C@H]1C(=O)Nc1ccc(-c2ccc(-c3ccc(NC(=O)[C@@H]4CCCN4C(C)=O)cc3)s2)cc1 [OL-24, (2S,2′S)-N,N′-(2,5-thienediyldi-4,1-phenylene)bis[1-acetyl-2-pyrrolidinecarboxamide]] | 100 to 999 |

same assay, conditions: Hepatitis C virus, HCV 1b genotype replicon; class symbols; read-out: EC50 Range against HCV 1b

| SMILES | EC50 [nM] |
| --- | --- |
| COc1ccc(C(=O)N2CCC[C@H]2C(=O)Nc2ccc(-c3cnc(-c4ccc(NC(=O)[C@@H]5CCCN5C(=O)c5ccc(OC)cc5)cc4)o3)cc2)cc1 [XY-29, (2S,2′S)-N,N′-(1,3-oxazole-2,5-diyldi-4,1-phenylene)bis(1-(4-methoxybenzoyl)-2-pyrrolidinecarboxamide)] | 100 to 999 |
| N#CC1(C(=O)N2CCC[C@H]2C(=O)Nc2ccc(-c3cnc(-c4ccc(NC(=O)[C@@H]5CCCN5C(=O)C5(C#N)CC5)cc4)o3)cc2)CC1 [XY-2, (2S,2′S)-N,N′-(1,3-oxazole-2,5-diyldi-4,1-phenylene)bis(1-((1-cyanocyclopropyl)carbonyl)-2-pyrrolidinecarboxamide)] | 100 to 999 |
| CC[C@@H](C(=O)N1CCC[C@H]1C(=O)Nc1ccc(-c2cnc(-c3ccc(NC(=O)[C@@H]4CCCN4C(=O)[C@H](CC)c4ccccc4)cc3)o2)cc1)c1ccccc1 [XY-20, (2S,2′S)-N,N′-(1,3-oxazole-2,5-diyldi-4,1-phenylene)bis(1-((2R)-2-phenylbutanoyl)-2-pyrrolidinecarboxamide)] | 4.57 to 99 |
| CCCC(C)(C)C(=O)N1CCC[C@H]1C(=O)Nc1ccc(-c2cnc(-c3ccc(NC(=O)[C@@H]4CCCN4C(=O)C(C)(C)CCC)cc3)o2)cc1 [XY-19, (2S,2′S)-N,N′-(1,3-oxazole-2,5-diyldi-4,1-phenylene)bis(1-(2,2-dimethylpentanoyl)-2-pyrrolidinecarboxamide)] | 1000 to 10000 |
| O=C(Nc1ccc(-c2cnc(-c3ccc(NC(=O)[C@@H]4CCCN4C(=O)c4ccccn4)cc3)o2)cc1)[C@@H]1CCCN1C(=O)c1ccccn1 [XY-6, (2S,2′S)-N,N′-(1,3-oxazole-2,5-diyldi-4,1-phenylene)bis(1-(2-pyridinylcarbonyl)-2-pyrrolidinecarboxamide)] | 1000 to 10000 |
| O=C(Nc1ccc(-c2cnc(-c3ccc(NC(=O)[C@@H]4CCCN4C(=O)C4CCOC4)cc3)o2)cc1)[C@@H]1CCCN1C(=O)C1CCOC1 (stereo partly drawn) [XY-18, (2S,2′S)-N,N′-(1,3-oxazole-2,5-diyldi-4,1-phenylene)bis(1-(tetrahydro-3-furanylcarbonyl)-2-pyrrolidinecarboxamide)] | 4.57 to 99 |

same assay, conditions: Hepatitis C virus, HCV 1b genotype replicon; read-out: EC50 1b

| SMILES | EC50 [nM] |
| --- | --- |
| CC[C@@H](C(=O)N1CCC[C@H]1C(=O)Nc1ccc(-c2cnc(-c3ccc(NC(=O)[C@@H]4CCCN4C(=O)[C@H](CC)c4ccccc4)cc3)o2)cc1)c1ccccc1 [XY-20, (2S,2′S)-N,N′-(1,3-oxazole-2,5-diyldi-4,1-phenylene)bis(1-((2R)-2-phenylbutanoyl)-2-pyrrolidinecarboxamide)] | 62 |
| COc1cccc2c(C(=O)N3CCC[C@H]3C(=O)Nc3ccc(-c4ccc(-c5ccc(NC(=O)[C@@H]6CCCN6C(=O)[C@H](NC(C)=O)c6ccccc6)cc5)o4)cc3)nc(Cl)cc12 [JG-67, (2S)-1-((2R)-2-acetamido-2-phenylacetyl)-N-(4-(5-(4-((((2S)-1-((3-chloro-5-methoxy-1-isoquinolinyl)carbonyl)-2-pyrrolidinyl)carbonyl)amino)phenyl)-2-furyl)phenyl)-2-pyrrolidinecarboxamide] | 5.2 |
| CC(=O)N1CCC[C@H]1C(=O)Nc1ccc(-c2ccc(-c3ccc(NC(=O)[C@@H]4CCCN4C(C)=O)cc3)s2)cc1 [OL-24, (2S,2′S)-N,N′-(2,5-thienediyldi-4,1-phenylene)bis[1-acetyl-2-pyrrolidinecarboxamide]] | 620 |
